The results in this text go back to paper doi:10.1101/2024.10.28.620768v1 (biorxiv, 2024).

The term Kd denotes the constant that tells how readily two partners part at equilibrium.

SMILES strings stand for the structures.

The test concerns the target Cdr1 (Candida albicans, UniProt Q5ANA3). In words: microscale thermophoresis, Alexa Fluor 647-labelled Cdr1, Hill fit. It counts as binding. On the technique in general: MST reads how a fluorescent partner responds to local heating, with and without ligand.

Chain of Cdr1 (Q5ANA3 whole entry): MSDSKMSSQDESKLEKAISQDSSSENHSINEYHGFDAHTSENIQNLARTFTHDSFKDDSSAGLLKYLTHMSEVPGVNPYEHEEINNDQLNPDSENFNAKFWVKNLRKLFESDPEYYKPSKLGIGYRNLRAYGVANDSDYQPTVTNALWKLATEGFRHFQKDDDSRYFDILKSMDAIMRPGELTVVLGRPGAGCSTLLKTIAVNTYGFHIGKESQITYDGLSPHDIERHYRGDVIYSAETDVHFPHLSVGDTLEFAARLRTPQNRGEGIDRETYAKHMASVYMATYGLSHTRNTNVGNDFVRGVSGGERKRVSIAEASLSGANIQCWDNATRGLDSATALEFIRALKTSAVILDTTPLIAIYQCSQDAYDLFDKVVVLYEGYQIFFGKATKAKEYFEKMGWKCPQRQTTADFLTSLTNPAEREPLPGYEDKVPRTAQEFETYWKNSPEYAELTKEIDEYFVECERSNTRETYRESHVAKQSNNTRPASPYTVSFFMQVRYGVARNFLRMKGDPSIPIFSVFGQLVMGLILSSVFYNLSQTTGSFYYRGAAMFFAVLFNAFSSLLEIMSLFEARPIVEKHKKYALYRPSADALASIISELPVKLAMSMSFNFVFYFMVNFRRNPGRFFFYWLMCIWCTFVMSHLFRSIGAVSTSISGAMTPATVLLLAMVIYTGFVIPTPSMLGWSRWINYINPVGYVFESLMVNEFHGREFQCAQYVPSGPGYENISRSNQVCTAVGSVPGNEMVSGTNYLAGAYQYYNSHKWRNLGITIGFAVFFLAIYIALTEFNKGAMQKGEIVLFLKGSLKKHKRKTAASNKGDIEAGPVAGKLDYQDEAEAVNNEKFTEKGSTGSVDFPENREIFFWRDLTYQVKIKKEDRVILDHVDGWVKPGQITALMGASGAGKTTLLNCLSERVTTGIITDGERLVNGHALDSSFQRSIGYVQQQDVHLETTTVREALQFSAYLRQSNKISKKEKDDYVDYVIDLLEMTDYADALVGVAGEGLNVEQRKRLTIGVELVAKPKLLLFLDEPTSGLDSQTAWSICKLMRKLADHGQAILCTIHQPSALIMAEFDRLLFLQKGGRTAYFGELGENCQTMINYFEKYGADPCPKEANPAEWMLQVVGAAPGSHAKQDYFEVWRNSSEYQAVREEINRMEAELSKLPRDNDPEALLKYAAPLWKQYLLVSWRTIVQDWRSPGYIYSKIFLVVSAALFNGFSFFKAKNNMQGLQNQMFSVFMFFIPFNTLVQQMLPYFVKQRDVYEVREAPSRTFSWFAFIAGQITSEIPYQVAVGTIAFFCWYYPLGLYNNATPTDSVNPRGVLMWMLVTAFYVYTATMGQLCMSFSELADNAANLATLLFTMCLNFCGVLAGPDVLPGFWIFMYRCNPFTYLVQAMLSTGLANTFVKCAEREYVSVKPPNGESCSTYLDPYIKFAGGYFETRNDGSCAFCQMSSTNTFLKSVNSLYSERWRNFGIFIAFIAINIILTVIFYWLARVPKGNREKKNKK

The compound `O=C1OC2(c3cc(F)c(O)cc3Oc3cc(O)c(F)cc32)c2ccccc21` [Oregon Green 488] had a Kd of 32.8 ± 8.2 µM.
Consider `CCN=c1cc2oc3cc(NCC)c(C)cc3c(-c3ccccc3C(=O)OCC)c-2cc1C` [Rhodamine 6G], for which the equilibrium dissociation constant (Kd) came to 59.8 ± 7.1 µM.
